# In US11306078B2, “Piperidine CXCR7 receptor modulators” (IDORSIA PHARMACEUTICALS LTD., priority 2016, dated 2022):
# Molecular target: human chemokine receptor CXCR7 (Homo sapiens (Human), UniProt P25106)
# Test: Tango CXCR7-bla U2OS beta-arrestin recruitment assay (beta-lactamase reporter, FRET), antagonism of CXCL12/SDF1-α;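 further: compounds preincubated 15 min before CXCL12 addition, then 22 h at 37 °C, FRET emission ratio read with CCF4-AM substrate after 2 h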
# Format: cell-based
# Conditions: antagonistic effect on CXCR7; Tango CXCR7-bla U2OS cells, CXCL12/SDF1-α at its EC80
# human chemokine receptor CXCR7, sequence (P25106 whole entry): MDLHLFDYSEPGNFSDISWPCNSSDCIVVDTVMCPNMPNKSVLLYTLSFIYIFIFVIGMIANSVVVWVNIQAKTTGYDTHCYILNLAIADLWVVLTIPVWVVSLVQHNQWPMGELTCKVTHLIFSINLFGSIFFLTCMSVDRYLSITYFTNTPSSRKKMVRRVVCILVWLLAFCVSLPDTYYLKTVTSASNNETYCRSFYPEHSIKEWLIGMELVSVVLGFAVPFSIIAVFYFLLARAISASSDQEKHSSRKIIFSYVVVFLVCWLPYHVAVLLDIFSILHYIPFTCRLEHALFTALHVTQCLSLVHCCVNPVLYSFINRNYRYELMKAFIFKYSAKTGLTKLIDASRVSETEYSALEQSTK
row,IC50,SMILES
1,512 nM,"Cc1csc(CNC(=O)[C@@H]2CN(C3CCCCC3)CC[C@H]2NC(=O)c2cc(-c3ccc(F)cc3F)on2)n1 (racemic) [Example 1.068, rac-(3R*,4R*)-1-Cyclohexyl-4-{[5-(2,4-difluoro-phenyl)-isoxazole-3-carbonyl]-amino}-piperidine-3-carboxylic acid (4-methyl-thiazol-2-ylmethyl)-amide]"
2,44 nM,"CN(CCc1ccccn1)C(=O)[C@@H]1CN(C2CCCCC2)CC[C@H]1NC(=O)c1cc(-c2ccc(F)cc2F)on1 (racemic) [Example 1.075, rac-(3R*,4R*)-1-Cyclohexyl-4-{[5-(2,4-difluoro-phenyl)-isoxazole-3-carbonyl]-amino}-piperidine-3-carboxylic acid methyl-(2-pyridin-2-yl-ethyl)-amide]"
3,510 nM,"CC(C)(CF)NC(=O)[C@@H]1CN(C2CCCCC2)CC[C@H]1NC(=O)c1cc(-c2ccc(F)cc2F)on1 (racemic) [Example 1.079, rac-(3R*,4R*)-1-Cyclohexyl-4-{[5-(2,4-difluoro-phenyl)-isoxazole-3-carbonyl]-amino}-piperidine-3-carboxylic acid (2-fluoro-1,1-dimethyl-ethyl)-amide]"
4,118 nM,"CC(C)(CS(C)(=O)=O)NC(=O)[C@@H]1CN(C2CCCCC2)CC[C@H]1NC(=O)c1cc(-c2ccc(F)cc2F)on1 (racemic) [Example 1.081, rac-(3R*,4R*)-1-Cyclohexyl-4-{[5-(2,4-difluoro-phenyl)-isoxazole-3-carbonyl]-amino}-piperidine-3-carboxylic acid (2-methanesulfonyl-1,1-dimethyl-ethyl)-amide]"
5,244 nM,"CC(C)(CO)NC(=O)[C@@H]1CN(C2CCCCC2)CC[C@H]1NC(=O)c1cc(-c2ccc(F)cc2F)on1 (racemic) [Example 1.088, rac-(3R*,4R*)-1-Cyclohexyl-4-{[5-(2,4-difluoro-phenyl)-isoxazole-3-carbonyl]-amino}-piperidine-3-carboxylic acid (2-hydroxy-1,1-dimethyl-ethyl)-amide]"
6,667 nM,"CN(C)C(=O)[C@@H]1CN(C2CCCC2)CC[C@H]1NC(=O)c1cn(-c2ccc(F)cc2F)nn1 (racemic) [Example 1.096, rac-(3R*,4R*)-1-Cyclopentyl-4-{[1-(2,4-difluoro-phenyl)-1H-[1,2,3]triazole-4-carbonyl]-amino}-piperidine-3-carboxylic acid dimethylamide]"
7,442 nM,"CN(C)C(=O)[C@@H]1CN(CC2CC2)CC[C@H]1NC(=O)c1cn(-c2ccc(F)cc2F)nn1 (racemic) [Example 1.097, rac-(3R*,4R*)-1-Cyclopropylmethyl-4-{[1-(2,4-difluoro-phenyl)-1H-[1,2,3]triazole-4-carbonyl]-amino}-piperidine-3-carboxylic acid dimethylamide]"
8,131 nM,"CN(C)C(=O)[C@@H]1CN(C2CCCC2)CC[C@H]1NC(=O)c1cc(-c2c(F)cc(F)cc2F)on1 (racemic) [Example 1.099, rac-(3R*,4R*)-1-Cyclopentyl-4-{[5-(2,4,6-trifluoro-phenyl)-isoxazole-3-carbonyl]-amino}-piperidine-3-carboxylic acid dimethylamide]"
9,111 nM,"CN(C)C(=O)[C@@H]1CN(C2CCCCC2)CC[C@H]1NC(=O)c1cc(-c2ccc(F)cc2F)no1 (racemic) [Example 1.102, rac-(3R*,4R*)-1-Cyclohexyl-4-{[3-(2,4-difluoro-phenyl)-isoxazole-5-carbonyl]-amino}-piperidine-3-carboxylic acid dimethylamide]"
10,274 nM,"CN(C)C(=O)[C@@H]1CN(C2CCCC2)CC[C@H]1NC(=O)c1cc(-c2ccc(F)cc2F)no1 (racemic) [Example 1.103, rac-(3R*,4R*)-1-Cyclopentyl-4-{[3-(2,4-difluoro-phenyl)-isoxazole-5-carbonyl]-amino}-piperidine-3-carboxylic acid dimethylamide]"
11,964 nM,"O=C(N[C@@H]1CCN(C2CCCCC2)C[C@H]1C(=O)N1CCC1)c1cn(-c2ccc(F)cc2F)nn1 (racemic) [Example 1.104, rac-1-(2,4-Difluoro-phenyl)-1H-[1,2,3]triazole-4-carboxylic acid [(3R*,4R*)-3-(azetidine-1-carbonyl)-1-cyclohexyl-piperidin-4-yl]-amide]"
12,430 nM,"O=C(N[C@@H]1CCN(C2CCCCC2)C[C@H]1C(=O)N1CCC1)c1cc(-c2c(F)cc(F)cc2F)on1 (racemic) [Example 1.105, rac-5-(2,4,6-Trifluoro-phenyl)-isoxazole-3-carboxylic acid [(3R*,4R*)-3-(azetidine-1-carbonyl)-1-cyclohexyl-piperidin-4-yl]-amide]"
13,248 nM,"O=C(N[C@@H]1CCN(C2CCCC2)C[C@H]1C(=O)N1CCC1)c1cc(-c2c(F)cc(F)cc2F)on1 (racemic) [Example 1.106, rac-5-(2,4,6-Trifluoro-phenyl)-isoxazole-3-carboxylic acid [(3R*,4R*)-3-(azetidine-1-carbonyl)-1-cyclopentyl-piperidin-4-yl]-amide]"
14,520 nM,"O=C(N[C@@H]1CCN(CC2CC2)C[C@H]1C(=O)N1CCC1)c1cc(-c2c(F)cc(F)cc2F)on1 (racemic) [Example 1.107, rac-5-(2,4,6-Trifluoro-phenyl)-isoxazole-3-carboxylic acid [(3R*,4R*)-3-(azetidine-1-carbonyl)-1-cyclopropylmethyl-piperidin-4-yl]-amide]"
15,902 nM,"COCC(C)(C)NC(=O)[C@@H]1CN(C2CCCC2)CC[C@H]1NC(=O)c1cn(-c2ccc(F)cc2F)nn1 (racemic) [Example 1.109, rac-(3R*,4R*)-1-Cyclopentyl-4-{[1-(2,4-difluoro-phenyl)-1H-[1,2,3]triazole-4-carbonyl]-amino}-piperidine-3-carboxylic acid (2-methoxy-1,1-dimethyl-ethyl)-amide]"
16,332 nM,"COCC(C)(C)NC(=O)[C@@H]1CN(C2CCCCC2)CC[C@H]1NC(=O)c1cc(-c2c(F)cc(F)cc2F)on1 (racemic) [Example 1.111, rac-(3R*,4R*)-1-Cyclohexyl-4-{[5-(2,4,6-trifluoro-phenyl)-isoxazole-3-carbonyl]-amino}-piperidine-3-carboxylic acid (2-methoxy-1,1-dimethyl-ethyl)-amide]"
17,227 nM,"COCC(C)(C)NC(=O)[C@@H]1CN(C2CCCC2)CC[C@H]1NC(=O)c1cc(-c2c(F)cc(F)cc2F)on1 (racemic) [Example 1.112, rac-(3R*,4R*)-1-Cyclopentyl-4-{[5-(2,4,6-trifluoro-phenyl)-isoxazole-3-carbonyl]-amino}-piperidine-3-carboxylic acid (2-methoxy-1,1-dimethyl-ethyl)-amide]"
18,118 nM,"COCC(C)(C)NC(=O)[C@@H]1CN(CC2CC2)CC[C@H]1NC(=O)c1cc(-c2c(F)cc(F)cc2F)on1 (racemic) [Example 1.113, rac-(3R*,4R*)-1-Cyclopropylmethyl-4-{[5-(2,4,6-trifluoro-phenyl)-isoxazole-3-carbonyl]-amino}-piperidine-3-carboxylic acid (2-methoxy-1,1-dimethyl-ethyl)-amide]"
19,566 nM,"COCC(C)(C)NC(=O)[C@@H]1CN(C2CCCCC2)CC[C@H]1NC(=O)c1cc(-c2ccc(F)cc2F)no1 (racemic) [Example 1.115, rac-(3R*,4R*)-1-Cyclohexyl-4-{[3-(2,4-difluoro-phenyl)-isoxazole-5-carbonyl]-amino}-piperidine-3-carboxylic acid (2-methoxy-1,1-dimethyl-ethyl)-amide]"
20,614 nM,"COCC(C)(C)NC(=O)[C@@H]1CN(C2CCCC2)CC[C@H]1NC(=O)c1cc(-c2ccc(F)cc2F)no1 (racemic) [Example 1.116, rac-(3R*,4R*)-1-Cyclopentyl-4-{[3-(2,4-difluoro-phenyl)-isoxazole-5-carbonyl]-amino}-piperidine-3-carboxylic acid (2-methoxy-1,1-dimethyl-ethyl)-amide]"
21,4 nM,"C[C@@H](NC(=O)[C@@H]1CN(C2CCCCC2)CC[C@H]1NC(=O)c1cc(-c2c(F)cc(F)cc2F)on1)c1ccccn1 (racemic) [Example 1.121, (3R*,4R*)-1-Cyclohexyl-4-{[5-(2,4,6-trifluoro-phenyl)-isoxazole-3-carbonyl]-amino}-piperidine-3-carboxylic acid ((R)-1-pyridin-2-yl-ethyl)-amide]"
22,105 nM,"C[C@@H](NC(=O)[C@@H]1CN(C2CCCCC2)CC[C@H]1NC(=O)c1cc(-c2c(F)cc(F)cc2F)on1)c1cnccn1 (racemic) [Example 1.129, (3R*,4R*)-1-Cyclohexyl-4-{[5-(2,4,6-trifluoro-phenyl)-isoxazole-3-carbonyl]-amino}-piperidine-3-carboxylic acid ((R)-1-pyrazin-2-yl-ethyl)-amide]"
23,816 nM,"C[C@@H](NC(=O)[C@@H]1CN(C2CCCC2)CC[C@H]1NC(=O)c1cc(-c2c(F)cc(F)cc2F)on1)C1CCC1 (racemic) [Example 1.138, (3R*,4R*)-1-Cyclopentyl-4-{[5-(2,4,6-trifluoro-phenyl)-isoxazole-3-carbonyl]-amino}-piperidine-3-carboxylic acid ((R)-1-cyclobutyl-ethyl)-amide]"
24,472 nM,"O=C(N[C@@H]1CCN(C2CCCCC2)C[C@H]1C(=O)NC1(c2ccc(F)cn2)CC1)c1cn(-c2ccc(F)cc2F)nn1 (racemic) [Example 1.142, rac-(3R*,4R*)-1-Cyclohexyl-4-{[1-(2,4-difluoro-phenyl)-1H-[1,2,3]triazole-4-carbonyl]-amino}-piperidine-3-carboxylic acid [1-(5-fluoro-pyridin-2-yl)-cyclopropyl]-amide]"
25,719 nM,"O=C(N[C@@H]1CCN(C2CCCCC2)C[C@H]1C(=O)NC1(c2ccc(F)cn2)CC1)c1cc(-c2c(F)cc(F)cc2F)on1 (racemic) [Example 1.143, rac-(3R*,4R*)-1-Cyclohexyl-4-{[5-(2,4,6-trifluoro-phenyl)-isoxazole-3-carbonyl]-amino}-piperidine-3-carboxylic acid [1-(5-fluoro-pyridin-2-yl)-cyclopropyl]-amide]"

row,SMILES,IC50
1,"CN(C)C(=O)[C@@H]1CN(C2CCCCC2)CC[C@H]1NC(=O)c1cn(-c2ccc(F)cc2F)nn1 (racemic) [Example 1.095, rac-(3R*,4R*)-1-Cyclohexyl-4-{[1-(2,4-difluoro-phenyl)-1H-[1,2,3]triazole-4-carbonyl]-amino}-piperidine-3-carboxylic acid dimethylamide]",254 nM
